Reference: patent US8598202B2, “Aryl-hydroxyethylamino-pyrimidines and triazines as modulators of fatty acid amide hydrolase” (Janssen Pharmaceutica NV, priority 2008, dated 2013)
Structures can show the parent of a compound that is named as a salt. One block for each compound: values may come before it.

How the values were obtained:
[1] = target: T1, Rat FAAH-1 (Rattus norvegicus, UniProt P97612); test: Assay Method 2: rat FAAH-1 assay, 3H-anandamide hydrolysis in homogenate of SK-N-MC cells transfected with rat FAAH
T1 sequence (P97612 1-579): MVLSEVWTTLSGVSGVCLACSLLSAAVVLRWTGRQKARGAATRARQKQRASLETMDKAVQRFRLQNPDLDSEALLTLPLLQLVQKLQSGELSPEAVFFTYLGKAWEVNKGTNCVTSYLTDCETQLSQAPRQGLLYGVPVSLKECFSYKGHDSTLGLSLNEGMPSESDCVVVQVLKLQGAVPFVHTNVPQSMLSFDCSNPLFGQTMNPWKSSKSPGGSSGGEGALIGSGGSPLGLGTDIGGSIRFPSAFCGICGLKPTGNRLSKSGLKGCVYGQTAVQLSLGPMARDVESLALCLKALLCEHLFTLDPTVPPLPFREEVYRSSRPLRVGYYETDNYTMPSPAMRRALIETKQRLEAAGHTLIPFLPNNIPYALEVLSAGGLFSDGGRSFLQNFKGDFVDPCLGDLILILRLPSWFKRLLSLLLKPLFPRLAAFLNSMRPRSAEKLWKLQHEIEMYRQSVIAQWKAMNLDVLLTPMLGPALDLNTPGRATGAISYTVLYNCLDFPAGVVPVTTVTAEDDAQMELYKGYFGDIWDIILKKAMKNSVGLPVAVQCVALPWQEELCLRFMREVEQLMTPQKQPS
Description: The assay mixture consisted of 50 μL of the cell homogenate, 10 μL of the test compound, and 40 μL of anandamide [1-^3H-ethanolamine] (^3H-AEA, Perkin-Elmer, 10.3 Ci/mmol), which was added last, for a final tracer concentration of 80 nM. The reaction mixture was incubated at rt for 1 h. During the incubation, 96-well Multiscreen filter plates (catalog number MAFCNOB50; Millipore, Bedford, Mass., USA) were loaded with 25 μL of activated charcoal (Multiscreen column loader, catalog number MACL09625, Millipore) and washed once with 100 μL of MeOH. […] After the 1 h incubation, 60 μL of the reaction mixture were transferred to the charcoal plates, which were then assembled on top of the DYNEX plates using Centrifuge Alignment Frames (catalog number MACF09604, Millipore). The unbound labeled ethanolamine was centrifuged through to the bottom plate (5 min at 2000 rpm), which was preloaded with the scintillant, as described above. The plates were sealed and left at rt for 1 h before counting on a Hewlett Packard TopCount.

[2] = target: T2, FAAH (Homo sapiens, UniProt O00519); test: Assay Method 1: FAAH assay, 3H-anandamide hydrolysis in homogenate of T84 cells or SK-N-MC cells transfected with human FAAH
T2 sequence (O00519 1-579): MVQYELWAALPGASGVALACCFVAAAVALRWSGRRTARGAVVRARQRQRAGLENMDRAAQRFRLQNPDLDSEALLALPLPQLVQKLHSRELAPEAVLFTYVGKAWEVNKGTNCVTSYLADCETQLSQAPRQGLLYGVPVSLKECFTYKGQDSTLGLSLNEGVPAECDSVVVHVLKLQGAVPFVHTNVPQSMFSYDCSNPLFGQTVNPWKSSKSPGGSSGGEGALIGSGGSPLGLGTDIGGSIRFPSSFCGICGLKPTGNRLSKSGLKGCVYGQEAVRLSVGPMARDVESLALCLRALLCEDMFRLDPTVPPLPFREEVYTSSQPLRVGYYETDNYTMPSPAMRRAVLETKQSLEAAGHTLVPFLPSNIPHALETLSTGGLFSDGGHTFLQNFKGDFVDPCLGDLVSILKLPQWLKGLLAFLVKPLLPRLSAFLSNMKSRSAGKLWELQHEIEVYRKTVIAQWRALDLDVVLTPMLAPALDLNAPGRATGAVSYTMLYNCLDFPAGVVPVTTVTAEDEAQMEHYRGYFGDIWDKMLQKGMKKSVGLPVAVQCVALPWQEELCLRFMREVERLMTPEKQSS

Compound: OC(CNc1cc(-c2ccc(C(F)(F)F)c(Cl)c2)ncn1)c1ccsc1 (centres unmarked) [Example 168, 2-({6-[3-Chloro-4-(trifluoromethyl)phenyl]pyrimidin-4-yl}amino)-1-thiophen-3-ylethanol]
IC50 [1]: 42 nM
IC50 [2]: 66 nM

Compound: OC(CNc1cc(-c2ccc(C(F)(F)F)c(Cl)c2)ncn1)c1nccs1 (centres unmarked) [Example 169, 2-({6-[3-Chloro-4-(trifluoromethyl)phenyl]pyrimidin-4-yl}amino)-1-(1,3-thiazol-2-yl)ethanol]
IC50 [1]: 8000 nM
IC50 [2]: 6000 nM

Compound: O[C@@H](CNc1cc(-c2ccc3ncccc3c2)ncn1)c1ccccc1 [Example 170, (1R)-1-Phenyl-2-[(6-quinolin-6-ylpyrimidin-4-yl)amino]ethanol]
IC50 [1]: 4000 nM
IC50 [2]: 81 nM

Compound: CC(C)(C)NS(=O)(=O)c1ccc(-c2cc(NC[C@H](O)c3ccccc3)ncn2)cc1 [Example 171, N-tert-Butyl-4-(6-{[(2R)-2-hydroxy-2-phenylethyl]amino}pyrimidin-4-yl)benzenesulfonamide]
IC50 [1]: > 10000 nM
IC50 [2]: 1600 nM

Compound: O=S(=O)(c1ccc(-c2cc(NC[C@H](O)c3ccccc3)ncn2)cc1)N1CCSCC1 [Example 172, (1R)-1-Phenyl-2-({6-[4-(thiomorpholin-4-ylsulfonyl)phenyl]pyrimidin-4-yl}amino)ethanol]
IC50 [1]: 1500 nM
IC50 [2]: 8000 nM

Compound: C[C@H](Nc1cc(-c2ccc(C(F)(F)F)c(Cl)c2)ncn1)[C@H](O)c1ccccc1 [Example 179]
IC50 [1]: 40 nM
IC50 [2]: 9 nM

Compound: O[C@@H](CNc1cc(-c2ccc3c(c2)OC(F)(F)O3)ncn1)c1ccccc1 [Example 183, (1R)-2-{[6-(2,2-Difluoro-1,3-benzodioxol-5-yl)pyrimidin-4-yl]amino}-1-phenylethanol]
IC50 [1]: 89 nM
IC50 [2]: 36 nM

Compound: O[C@@H](CNc1cc(-c2cc3cc(C(F)(F)F)ccc3s2)ncn1)c1ccccc1 [Example 184, (1R)-1-Phenyl-2-({6-[5-(trifluoromethyl)-1-benzothiophen-2-yl]pyrimidin-4-yl}amino)ethanol trifluoroacetic acid salt]
IC50 [1]: 160 nM
IC50 [2]: 31 nM

Compound: O[C@@H](CNc1cc(-c2cc3cc(OC(F)(F)F)ccc3s2)ncn1)c1ccccc1 [Example 185, (1R)-1-Phenyl-2-({6-[5-(trifluoromethoxy)-1-benzothiophen-2-yl]pyrimidin-4-yl}amino)ethanol trifluoroacetic acid salt]
IC50 [1]: 90 nM
IC50 [2]: 20 nM

Compound: O[C@@H](CNc1cc(-c2cc3ccc(C(F)(F)F)cc3s2)ncn1)c1ccccc1 [Example 186, (1R)-1-Phenyl-2-({6-[6-(trifluoromethyl)-1-benzothiophen-2-yl]pyrimidin-4-yl}amino)ethanol trifluoroacetic acid salt]
IC50 [1]: > 10000 nM
IC50 [2]: 7070 nM

Compound: O[C@@H](CNc1cc(-c2cc3cc(F)ccc3s2)ncn1)c1ccccc1 [Example 187, (1R)-2-{[6-(5-Fluoro-1-benzothiophen-2-yl)pyrimidin-4-yl}amino]-1-Phenylethanol]
IC50 [1]: 400 nM
IC50 [2]: 20 nM

Compound: O[C@@H](CNc1cc(-c2ccc3c(C(F)(F)C(F)(F)F)noc3c2)ncn1)c1ccccc1 [Example 188, (1R)-2-({6-[3-(pentafluoroethyl)-1,2-benzisoxazol-6-yl]pyrimidin-4-yl}amino)-1-phenylethanol trifluoroacetic acid salt]
IC50 [1]: 35 nM
IC50 [2]: 24 nM

Compound: OC(CNc1cc(-c2ccc(C(F)(F)F)c(Cl)c2)ncn1)c1ccccc1OC(F)F (centres unmarked) [Example 189, 2-({6-[3-Chloro-4-(trifluoromethyl)phenyl]pyrimidin-4-yl}amino)-1-[2-(difluoromethoxy)phenyl]ethanol]
IC50 [1]: 150 nM
IC50 [2]: 170 nM

Compound: OC(CNc1cc(-c2ccc(C(F)(F)F)c(Cl)c2)ncn1)c1ccc(-c2ccccn2)cc1 (centres unmarked) [Example 193, 2-({6-[3-Chloro-4-(trifluoromethyl)phenyl]pyrimidin-4-yl}amino)-1-(4-Pyridin-2-ylphenyl)ethanol]
IC50 [1]: 850 nM
IC50 [2]: 40 nM

Compound: OC(CNc1cc(-c2ccc(C(F)(F)F)c(Cl)c2)ncn1)c1ccc(-c2cccs2)cc1 (centres unmarked) [Example 194, 2-({6-[3-Chloro-4-(trifluoromethyl)phenyl]pyrimidin-4-yl}amino)-1-(4-thiophen-2-ylphenyl)ethanol]
IC50 [1]: 210 nM
IC50 [2]: 11 nM

Compound: OC(CNc1cc(-c2ccc(C(F)(F)F)c(Cl)c2)ncn1)c1ccc(-c2ccccc2)cc1 (centres unmarked) [Example 195, 1-Biphenyl-4-yl-2-({6-[3-chloro-4-(trifluoromethyl)phenyl]pyrimidin-4-yl}amino)ethanol]
IC50 [1]: 400 nM
IC50 [2]: 10 nM

Compound: OC(CNc1cc(-c2ccc(C(F)(F)F)c(Cl)c2)ncn1)c1cc2ccccc2s1 (centres unmarked) [Example 196, 1-(1-Benzothiophen-2-yl)-2-({6-[3-chloro-4-(trifluoromethyl)phenyl]pyrimidin-4-yl}amino)ethanol]
IC50 [1]: 43 nM
IC50 [2]: 108 nM

Next, values leading:

IC50 [1]: 11 nM
IC50 [2]: 2 nM
Compound: O[C@@H](CNc1cc(-c2ccc(C(F)(F)F)c(F)c2)ncn1)c1ccc(F)cc1 [Example 173, (1R)-1-(4-Fluorophenyl)-2-({6-[3-fluoro-4-(trifluoromethyl)phenyl]pyrimidin-4-yl}amino)ethanol]

IC50 [1]: 5 nM
IC50 [2]: 2 nM
Compound: O[C@@H](CNc1cc(-c2ccc(OC(F)(F)F)c(F)c2)ncn1)c1ccc(F)cc1 [Example 174, (1R)-1-(4-Fluorophenyl)-2-({6-[3-fluoro-4-(trifluoromethoxy)phenyl]pyrimidin-4-yl}amino)ethanol trifluoroacetic acid salt]

IC50 [1]: 3 nM
IC50 [2]: 2 nM
Compound: O[C@@H](CNc1cc(-c2ccc(OC(F)(F)F)c(Cl)c2)ncn1)c1ccc(F)cc1 [Example 175, (1R)-2-({6-[3-Chloro-4-(trifluoromethoxy)phenyl]pyrimidin-4-yl}amino)-1-(4-fluorophenyl)ethanol trifluoroacetic acid salt]

IC50 [1]: 10 nM
IC50 [2]: 9 nM
Compound: O[C@@H](CNc1cc(-c2ccc3c(C(F)(F)C(F)(F)F)noc3c2)ncn1)c1ccc(F)cc1 [Example 176, (1R)-1-(4-fluorophenyl)-2-({6-[3-(pentafluoroethyl)-1,2-benzisoxazol-6-yl]pyrimidin-4-yl}amino)ethanol trifluoroacetic acid salt]

IC50 [1]: 3 nM
IC50 [2]: 3 nM
Compound: O[C@@H](CNc1cc(-c2ccc3c(C(F)(F)F)noc3c2)ncn1)c1ccc(F)cc1 [Example 177, (1R)-1-(4-Fluorophenyl)-2-({6-[3-(trifluoromethyl)-1,2-benzisoxazol-6-yl]pyrimidin-4-yl}amino)ethanol trifluoroacetic acid salt]

IC50 [1]: 20 nM
IC50 [2]: 7 nM
Compound: O[C@@H](CNc1cc(-c2ccc(OC(F)(F)F)c(Cl)c2)ncn1)c1ccccc1 [Example 181, (1R)-2-({6-[3-Chloro-4-(trifluoromethoxy)phenyl]pyrimidin-4-yl}amino)-1-phenylethanol]

IC50 [1]: 4 nM
IC50 [2]: 10 nM
Compound: O[C@@H](CNc1cc(-c2ccc3c(C(F)(F)F)noc3c2)ncn1)c1ccccc1 [Example 182, (1R)-1-Phenyl-2-({6-[3-(trifluoromethyl)-1,2-benzisoxazol-6-yl]pyrimidin-4-yl}amino)ethanol]

IC50 [1]: 12 nM
IC50 [2]: 7 nM
Compound: OC(CNc1cc(-c2ccc(C(F)(F)F)c(Cl)c2)ncn1)c1ccc(F)cc1 (centres unmarked) [Example 190, 2-({6-[3-Chloro-4-(trifluoromethyl)phenyl]pyrimidin-4-yl}amino)-1-(4-fluorophenyl)ethanol]

IC50 [1]: 7 nM
IC50 [2]: 19 nM
Compound: N#Cc1ccc(C(O)CNc2cc(-c3ccc(C(F)(F)F)c(Cl)c3)ncn2)cc1 (centres unmarked) [Example 191, 4-[2-({6-[3-Chloro-4-(trifluoromethyl)phenyl]pyrimidin-4-yl}amino)-1-hydroxyethyl]benzonitrile]

IC50 [1]: 6 nM
IC50 [2]: 47 nM
Compound: OC(CNc1cc(-c2ccc(C(F)(F)F)c(Cl)c2)ncn1)c1ccc2ccccc2c1 (centres unmarked) [Example 192, 2-({6-[3-Chloro-4-(trifluoromethyl)phenyl]pyrimidin-4-yl}amino)-1-naphthalen-2-ylethanol]

IC50 [1]: 34 nM
IC50 [2]: 100 nM
Compound: OC(CNc1cc(-c2ccc(C(F)(F)F)c(Cl)c2)ncn1)c1ccc(C(F)(F)F)c(F)c1 (centres unmarked) [Example 197, 2-({6-[3-Chloro-4-(trifluoromethyl)phenyl]pyrimidin-4-yl}amino)-1-[3-fluoro-4-(trifluoromethyl)phenyl]ethanol]
